Assay results as given in patent US20240390285A1, “HIGH-DOSE COMPRESSIBLE DOSAGE FORMS MANUFACTURED BY SIMULTANEOUS MELT-COATING AND MELT-GRANULATION OF ACTIVE PHARMACEUTICAL INGREDIENTS” (Rutgers, The State University of New Jersey, priority 2021, published 2024).
“And” between values parts separate entries of the source, which are not always exact repeats. Equal values may be shown once. Read-outs that look alike come from different tables or passages of the source.

Legend:
[1] = Percent loss-on-drying (LOD); type: physicochemical
[2] = Granule tabletability, […] compactor simulator; type: physicochemical; conditions: 600 mg darunavir, 12 mm
Protocol: This provided an assessment of granule tabletability using a […] compactor simulator, producing 12 mm flat cylindrical tablets having a thickness of approximately 4.6 mm.
The processing parameters for the granules in table 8 were: 0.4 kg/h throughput, 300 rpm screw speed, 60° C. processing temperature.
The granules were blended with 1% of MgSt and formed into tablets using […] tooling.

[3] = cited from earlier work
[4] = cited from earlier work; remark: listed apart in the source
[5] = tablet 96% darunavir + 1% MgSt + 3% CMC-Na, avg. pre-compression force 1.54-1.84 kN
[6] = tablet 99% darunavir + 1% MgSt, avg. pre-compression force 1.67-1.80 kN
[7] = tablet 99% darunavir + 1% MgSt, avg. pre-compression force 9.59-10.16 kN

CC(C)CN(C[C@@H](O)[C@H](Cc1ccccc1)NC(=O)O[C@H]1CO[C@H]2OCC[C@H]21)S(=O)(=O)c1ccc(N)cc1 [darunavir, Darunavir]
percent loss-on-drying, Avg. ([1]; average of 3 samples): 4.42%
percent loss-on-drying (weight loss due to moisture evaporation) ([1]; individual Samples 1-3, listed as Pure Darunavir): 4.36% and 4.28% and 4.63%
Avg. Crushing Force/Hardness [2, 5]: 65.3 N
Tablet density [2, 5]: 1.16 g/mL
Tensile Strength [2, 5]: 0.76 MPa
Avg. Crushing Force/Hardness [2, 6]: 42.9 N
Tablet density [2, 6]: 1.14 g/mL
Tensile Strength [2, 6]: 0.49 MPa
Avg. Crushing Force/Hardness [2, 7]: 36.8 N
Tablet density [2, 7]: 1.15 g/mL
Tensile Strength [2, 7]: 0.42 MPa

NC(=O)c1nc(F)c[nH]c1=O [favipiravir, 6-fluoro-3-oxo-3,4-dihydropyrazine-2-carboxamide]
solubility ([3]; pH of 2.0-5.5): only slightly soluble
solubility ([3]; pH of 5.5-6.1): sparingly soluble
dissociation constant, pKa [4]: 5.1
